# Source: patent US4863713A, “Method and system for administering therapeutic and diagnostic agents” (priority 1986, dated 1989)
# Experiments:
# [1] = Whole body retention of radionuclide 24 hours after antibody/chelate complex (Table 1); assay type: in vivo; settings: WC3A11 antibody; vs less tightly bound In-TBEDTA
# [2] = system: KHJJ adenocarcinoma tumor; experiment: Tumor imaging and biodistribution after WC3A11, clearing agent and radiolabelled chelate (Example 6); assay type: in vivo, Balb/c mice
# Protocol: Three hours later, a whole-body scan, using computer digitation of the whole-body image, was performed on the animals.
# [3] = system: KHJJ adenocarcinoma tumor; experiment: Tumor targeting, first study: antibody complexed with L-benzyl-EDTA-111In, 24 h biodistribution; assay type: in vivo, Balb/C mice
# Protocol: (§1) This example examines the targeting of ^111 In in animal tumors, according to the method of the invention. Balb/C mice were prepared with a KHJJ adenocarcinoma tumor implants in the flank. A hybridoma cell line designated CHA255 specific against L-benzyl-EDTA-In was prepared by methods similar to those described in Example II, using as an immunogen, an L-benzyl-EDTA-In (para-nitrophenolbenzyl-EDTA-In) group derivatized in KLH.
# In a first study, a group of three mice were initially injected with 100 ug (about 0.7 nmole) of the CHA255 antibody complexed with L-benzyl-EDTA-^111 In compound. Twenty four hours later, the animals were sacrificed, and examined for ^111 In levels in the blood, tumor, and several organs which are listed in Table 3A. The radioactivity levels were calculated in terms of percent of total radioactivity per gram tissue. The average of values obtained for three mice, and standard deviations, are given to the middle column in Table 2A. Tumor/organ (T/O) ratios are shown at the right the table.
# [4] = system: KHJJ adenocarcinoma tumor; experiment: Tumor targeting, second study: antibody 23 h prior to hapten, 1 h post hapten biodistribution; assay type: in vivo, Balb/C mice
# Protocol: as §1
# In a second study, the antibody alone was administered to each of three animals, and allowed to localize for 23 hours, at which time the L-benzyl-EDTA-^111 In compound was administered. One hour later the animals were sacrificed and again examined for radioactivity levels.
# [5] = system: KHJJ adenocarcinoma tumor; experiment: Tumor targeting, third study: antibody, clearing agent, then hapten; 3 h post hapten biodistribution; assay type: in vivo, Balb/C mice
# Protocol: as §1
# A third study examined the degree of tumor localization achievable by an antibody, antibody clearance, and compound administration regimen carried out in accordance with the invention. The CHA255 antibody was administered to each of three animals and allowed to localize for 24 hours, at which time the antibody was cleared from the bloodstream by administration of a clearing agent consisting of transferring derivatized with L-benzyl-EDTA-In. One hour later, the L-benzyl-EDTA-^111 In compound was administered, and the animals sacrificed after an additional three hours.
# [6] = Whole body retention of antibody complexes of EDTA-111In or 57Co compounds (Example 4); assay type: in vivo, Balb/C mice; settings: WC3A11 complex
# Protocol: EDTA and BABE-EDTA were complexed with ^111 In and bleomycin, with ^57 Co, as in Example 1. […] BLEDTA-IV-^111 In, a bleomycin-EDTA-In compound containing EDTA linked to bleomycin through a dithiobutane spacer, was prepared as described in co-owned patent application for "Bleomycin Conjugates and Methods". TBEDTA-^111 In was prepared as in Example 1. WC3A11 antibody complexes were formed by incubating the WC3A11 antibody from Example 2 with a selected ^111 In cpm amount of (a) ^111 -In-EDTA, (b) ^111 In-BABE-EDTA, (c) BLEDTA-II-^111 In, (d) BL-^57 Co. (e) BLEDTA-IV-^111 In, or (f) TBEDTA-^111 In.
# Each of the antibody/EDTA-^111 In or ^57 Co complexes (a)-(f) was subjected intravenously to each of three Balb/C mice, in an amount between about 200-800 μg per animal. Twenty-four hours after the injection, the total body radioactivity of ^111 In was measured in a dual-probe scintillation counter. The values were averaged for the three animals. […] By contrast, the antibody complexes of compounds (e) and (f) (both of which contain a thiobutane-BABE-EDTA moiety) were retained to more than 30% after 24 hours, at an initial dose of about 180 μg antibody, and to greater than about 70% of an initial antibody dose of about 800 μg antibody.
smiles,measurement,setting,value
O=C([O-])CN(CC(=O)[O-])CC(Cc1ccc(NC(=O)CSCCCCS)cc1)N(CC(=O)[O-])CC(=O)[O-].[Co+3] (stereo not drawn) [Co-TBEDTA],whole body retention (in words),[1],substantially greater retention
same,"whole-body scan, label localization at 3 hours (in words)","[2]; FIG. 3A, 3 hours","localization of the label in the kidneys (K), bladder (B) and flank tumor (T)"
same,whole-body scan at 24 hours (in words),"[2]; FIG. 3B, 24 hours",absence of label in the bladder. Good tumor imaging with low background is still achieved
same,tumor uptake and tumor-to-organ ratios (in words),"[2]; Table 3, 3 hours","high tumor-to-organ ratios for blood, and other internal organs"
O=C([O-])CN(CC(=O)[O-])CC(Cc1ccccc1)N(CC(=O)[O-])CC(=O)[O-].[111In+3] [L-benzyl-EDTA-^111 In],radioactivity remaining in blood and localized in tumor (in words),"[3]; 24 hours, Table 2A","a large percentage of radioactivity remained in the blood, although high amounts were also tumor-localized"
same,"24 Hr Conc, Blood","[3]; Hapten-Ab complex (CHA255), 24 h, blood",13.41 ± 1.48 %/gm
same,"24 Hr Conc, Bone","[3]; Hapten-Ab complex (CHA255), 24 h, bone",1.42 ± 0.22 %/gm
same,"24 Hr Conc, Gut","[3]; Hapten-Ab complex (CHA255), 24 h, gut",2.07 ± 1.42 %/gm
same,"24 Hr Conc, Heart","[3]; Hapten-Ab complex (CHA255), 24 h, heart",3.23 ± 0.48 %/gm
same,"24 Hr Conc, Kidneys","[3]; Hapten-Ab complex (CHA255), 24 h, kidneys",3.73 ± 0.81 %/gm
same,"24 Hr Conc, Liver","[3]; Hapten-Ab complex (CHA255), 24 h, liver",5.76 ± 0.86 %/gm
same,"24 Hr Conc, Lungs","[3]; Hapten-Ab complex (CHA255), 24 h, lungs",6.50 ± 0.91 %/gm
same,"24 Hr Conc, Muscle","[3]; Hapten-Ab complex (CHA255), 24 h, muscle",1.18 ± 0.16 %/gm
same,"24 Hr Conc, Skin","[3]; Hapten-Ab complex (CHA255), 24 h, skin",2.35 ± 1.19 %/gm
same,"24 Hr Conc, Spleen","[3]; Hapten-Ab complex (CHA255), 24 h, spleen",2.50 ± 0.37 %/gm
same,"24 Hr Conc, Tumor","[3]; Hapten-Ab complex (CHA255), 24 h, tumor",11.26 ± 1.40 %/gm
same,"T/O Ratio, Blood","[3]; Hapten-Ab complex, 24 h, tumor/blood",0.8
same,"T/O Ratio, Bone","[3]; Hapten-Ab complex, 24 h, tumor/bone",8.0
same,"T/O Ratio, Gut","[3]; Hapten-Ab complex, 24 h, tumor/gut",7.4
same,"T/O Ratio, Heart","[3]; Hapten-Ab complex, 24 h, tumor/heart",3.5
same,"T/O Ratio, Kidneys","[3]; Hapten-Ab complex, 24 h, tumor/kidneys",3.1
same,"T/O Ratio, Liver","[3]; Hapten-Ab complex, 24 h, tumor/liver",2.0
same,"T/O Ratio, Lungs","[3]; Hapten-Ab complex, 24 h, tumor/lungs",1.7
same,"T/O Ratio, Muscle","[3]; Hapten-Ab complex, 24 h, tumor/muscle",9.6
same,"T/O Ratio, Skin","[3]; Hapten-Ab complex, 24 h, tumor/skin",5.7
same,"T/O Ratio, Spleen","[3]; Hapten-Ab complex, 24 h, tumor/spleen",4.5
same,"Conc 1 Hr Post Hapten, Blood","[4]; Ab 23 Hr prior to hapten, 1 h, blood",24.01 ± 0.80 %/gm
same,"Conc 1 Hr Post Hapten, Bone","[4]; Ab 23 Hr prior to hapten, 1 h, bone",1.57 ± 0.09 %/gm
same,"Conc 1 Hr Post Hapten, Gut","[4]; Ab 23 Hr prior to hapten, 1 h, gut",1.51 ± 0.19 %/gm
same,"Conc 1 Hr Post Hapten, Heart","[4]; Ab 23 Hr prior to hapten, 1 h, heart",5.40 ± 0.49 %/gm
same,"Conc 1 Hr Post Hapten, Kidneys","[4]; Ab 23 Hr prior to hapten, 1 h, kidneys",5.87 ± 0.81 %/gm
same,"Conc 1 Hr Post Hapten, Liver","[4]; Ab 23 Hr prior to hapten, 1 h, liver",6.35 ± 0.50 %/gm
same,"Conc 1 Hr Post Hapten, Lungs","[4]; Ab 23 Hr prior to hapten, 1 h, lungs",9.72 ± 0.24 %/gm
same,"Conc 1 Hr Post Hapten, Muscle","[4]; Ab 23 Hr prior to hapten, 1 h, muscle",1.44 ± 0.16 %/gm
same,"Conc 1 Hr Post Hapten, Skin","[4]; Ab 23 Hr prior to hapten, 1 h, skin",1.60 ± 0.20 %/gm
same,"Conc 1 Hr Post Hapten, Spleen","[4]; Ab 23 Hr prior to hapten, 1 h, spleen",3.03 ± 0.27 %/gm
same,"Conc 1 Hr Post Hapten, Tumor","[4]; Ab 23 Hr prior to hapten, 1 h, tumor",4.08 ± 0.51 %/gm
same,"T/O Ratio, Blood","[4]; Ab 23 Hr prior to hapten, 1 h, tumor/blood",0.17
same,"T/O Ratio, Bone","[4]; Ab 23 Hr prior to hapten, 1 h, tumor/bone",2.59
same,"T/O Ratio, Gut","[4]; Ab 23 Hr prior to hapten, 1 h, tumor/gut",2.73
same,"T/O Ratio, Heart","[4]; Ab 23 Hr prior to hapten, 1 h, tumor/heart",0.76
same,"T/O Ratio, Kidneys","[4]; Ab 23 Hr prior to hapten, 1 h, tumor/kidneys",0.70
same,"T/O Ratio, Liver","[4]; Ab 23 Hr prior to hapten, 1 h, tumor/liver",0.64
same,"T/O Ratio, Lungs","[4]; Ab 23 Hr prior to hapten, 1 h, tumor/lungs",0.42
same,"T/O Ratio, Muscle","[4]; Ab 23 Hr prior to hapten, 1 h, tumor/muscle",2.84
same,"T/O Ratio, Skin","[4]; Ab 23 Hr prior to hapten, 1 h, tumor/skin",2.57
same,"T/O Ratio, Spleen","[4]; Ab 23 Hr prior to hapten, 1 h, tumor/spleen",1.36
same,tumor uptake and tumor/organ uptake ratios (in words),[4]; compared with coadministration of antibody and In compound,lower levels of tumor uptake and lower tumor/organ uptake ratios
same,"Conc 3 Hrs Post Hapten, Blood","[5]; Ab 25 Hr, blocking agent 1 Hr prior to hapten, 3 h, blood",0.95 ± 0.44 %/gm
same,"Conc 3 Hrs Post Hapten, Bone","[5]; Ab 25 Hr, blocking agent 1 Hr prior to hapten, 3 h, bone",1.50 ± 0.37 %/gm
same,"Conc 3 Hrs Post Hapten, Gut","[5]; Ab 25 Hr, blocking agent 1 Hr prior to hapten, 3 h, gut",2.66 ± 0.61 %/gm
same,"Conc 3 Hrs Post Hapten, Heart","[5]; Ab 25 Hr, blocking agent 1 Hr prior to hapten, 3 h, heart",0.92 ± 0.29 %/gm
same,"Conc 3 Hrs Post Hapten, Kidneys","[5]; Ab 25 Hr, blocking agent 1 Hr prior to hapten, 3 h, kidneys",1.10 ± 0.16 %/gm
same,"Conc 3 Hrs Post Hapten, Liver","[5]; Ab 25 Hr, blocking agent 1 Hr prior to hapten, 3 h, liver",0.87 ± 0.39 %/gm
same,"Conc 3 Hrs Post Hapten, Lungs","[5]; Ab 25 Hr, blocking agent 1 Hr prior to hapten, 3 h, lungs",2.55 ± 0.24 %/gm
same,"Conc 3 Hrs Post Hapten, Muscle","[5]; Ab 25 Hr, blocking agent 1 Hr prior to hapten, 3 h, muscle",3.48 ± 0.77 %/gm
same,"Conc 3 Hrs Post Hapten, Skin","[5]; Ab 25 Hr, blocking agent 1 Hr prior to hapten, 3 h, skin",4.86 ± 0.45 %/gm
same,"Conc 3 Hrs Post Hapten, Spleen","[5]; Ab 25 Hr, blocking agent 1 Hr prior to hapten, 3 h, spleen",0.21 ± 0.04 %/gm
same,"Conc 3 Hrs Post Hapten, Tumor","[5]; Ab 25 Hr, blocking agent 1 Hr prior to hapten, 3 h, tumor",7.72 ± 1.35 %/gm
same,In levels in blood and internal organs relative to tumor (in words),[5]; after clearing agent,In levels in the blood and internal organs was greatly reduced relative to the levels concentrated in the tumor
same,"T/O Ratio, Blood","[5]; blocking agent 1 Hr prior to hapten, 3 h, tumor/blood",9.20
same,"T/O Ratio, Bone","[5]; blocking agent 1 Hr prior to hapten, 3 h, tumor/bone",5.40
same,"T/O Ratio, Gut","[5]; blocking agent 1 Hr prior to hapten, 3 h, tumor/gut",2.97
same,"T/O Ratio, Heart","[5]; blocking agent 1 Hr prior to hapten, 3 h, tumor/heart",8.71
same,"T/O Ratio, Kidneys","[5]; blocking agent 1 Hr prior to hapten, 3 h, tumor/kidneys",7.04
same,"T/O Ratio, Liver","[5]; blocking agent 1 Hr prior to hapten, 3 h, tumor/liver",10.21
same,"T/O Ratio, Lungs","[5]; blocking agent 1 Hr prior to hapten, 3 h, tumor/lungs",3.02
same,"T/O Ratio, Muscle","[5]; blocking agent 1 Hr prior to hapten, 3 h, tumor/muscle",2.33
same,"T/O Ratio, Skin","[5]; blocking agent 1 Hr prior to hapten, 3 h, tumor/skin",1.61
same,"T/O Ratio, Spleen","[5]; blocking agent 1 Hr prior to hapten, 3 h, tumor/spleen",38.03
O=C([O-])CN(CC(=O)[O-])CC(Cc1ccc(NC(=O)CSCCCCS)cc1)N(CC(=O)[O-])CC(=O)[O-].[111In+3] (stereo not drawn) [TBEDTA-^111 In],"retained after 24 hours, about 180 μg antibody",[6]; initial dose about 180 μg antibody,more than 30%
same,"retained after 24 hours, about 800 μg antibody",[6]; initial dose about 800 μg antibody,greater than 70%
